From US20120258960A1, “NOVEL MULTIFUNCTIONAL PEPTIDASE INHIBITORS, ESPECIALLY FOR MEDICAL USE” (IMTM GMBH, priority 2009, published 2012) come the findings set out here.

Assay [1] has as its target purified, recombinant human DPIV (Homo sapiens, UniProt P27487). Description: Measurement of DPIV activity (fluorogenic substrate (Ala-Pro)2-R110).
Method: The enzymatic activity of DPIV was assessed by the hydrolysis of the fluorogenic substrate bis-(L-alanyl-prolyl)-Rhodamin-110 (bis-trifluoracetate, abbreviation (Ala-Pro)2-R110). The final substrate concentration was 0.5 μM.
The assay was performed in white microtitre plates for fluorescence measurements. The test items, substrate and enzyme were diluted in assay buffer. […] As controls, the DPIV activity in the absence of test items as well as the spontaneous hydrolysis of the substrate was determined.
Assay [2] deals with human recombinant Aminopeptidase N (Homo sapiens, UniProt P15144). The assay can be described thus: Measurement of APN activity (fluorogenic substrate (Ala)2-R110). In kind it is biochemical. Particulars: human recombinant APN approx. 5 nM, substrate 0.5 μM, pH 7.5. On the procedure: Inhibitory effects of test items on the enzymatic activity of human recombinant Aminopeptidase N (final concentration approx. 5 nM) were assessed by using the fluorogenic substrate bis-(L-alanyl)-Rhodamine-110 (bis-trifluoracetate, abbreviation (Ala)2-R110) at a final concentration of 0.5 μM. The assay was performed in 0.05 M TRIS/HCl buffer pH 7.5, supplemented with 0.05% Triton (v/v), 0.05% BSA (w/v), 2 mM MgCl2.
Sequence of human recombinant Aminopeptidase N (P15144 whole entry): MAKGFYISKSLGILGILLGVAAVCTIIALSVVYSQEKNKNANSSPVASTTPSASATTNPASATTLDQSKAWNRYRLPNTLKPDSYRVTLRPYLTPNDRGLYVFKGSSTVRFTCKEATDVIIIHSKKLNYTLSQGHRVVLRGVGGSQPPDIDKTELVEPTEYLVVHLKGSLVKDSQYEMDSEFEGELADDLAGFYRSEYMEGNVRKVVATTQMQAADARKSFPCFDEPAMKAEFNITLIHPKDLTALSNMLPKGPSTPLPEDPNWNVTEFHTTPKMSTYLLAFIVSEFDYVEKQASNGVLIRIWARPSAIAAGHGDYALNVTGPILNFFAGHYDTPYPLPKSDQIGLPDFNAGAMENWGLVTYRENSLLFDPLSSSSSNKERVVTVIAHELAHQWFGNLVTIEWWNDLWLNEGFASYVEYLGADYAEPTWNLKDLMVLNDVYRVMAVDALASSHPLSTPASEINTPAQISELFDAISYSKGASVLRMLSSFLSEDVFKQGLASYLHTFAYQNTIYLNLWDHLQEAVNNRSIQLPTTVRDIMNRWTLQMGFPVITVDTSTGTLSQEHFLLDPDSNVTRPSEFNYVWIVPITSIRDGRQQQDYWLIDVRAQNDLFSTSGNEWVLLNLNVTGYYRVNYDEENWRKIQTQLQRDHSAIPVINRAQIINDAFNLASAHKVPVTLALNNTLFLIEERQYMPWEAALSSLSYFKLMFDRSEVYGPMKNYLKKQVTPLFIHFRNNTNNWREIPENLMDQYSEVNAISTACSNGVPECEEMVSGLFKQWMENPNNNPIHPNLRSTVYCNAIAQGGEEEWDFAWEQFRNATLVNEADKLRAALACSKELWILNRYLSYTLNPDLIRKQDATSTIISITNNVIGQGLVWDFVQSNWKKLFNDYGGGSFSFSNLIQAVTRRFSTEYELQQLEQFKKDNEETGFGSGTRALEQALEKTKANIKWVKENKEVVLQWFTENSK
The assay was performed in white microtitre plates for fluorescence measurements.
As controls, (Ala)2-R110 hydrolyzing activity in the absence of any test item as well as the spontaneous substrate hydrolysis was determined.
The release of the fluorescent hydrolysis product Rhodamine 110 was measured at an excitation wavelength of 485 nm and an emission wavelength of 530 nm by using a microtitre fluorescence reader immediately after substrate addition as well as after 30, 60 and 120 min.

Assay [3] relates to human peripheral blood mononuclear cells. Description: Inhibition of proliferation of PHA-stimulated mononuclear cells (BrdU incorporation). Type of assay: cell-based. Particulars: PBMC, 1 μg/ml Phytohemagglutinine, 48 hours, test compounds 0.1-250 μM, read-out: MNC IC50. Here is the method: (§1) Peripheral blood mononuclear cells (PBMC) from healthy human volunteers were freshly isolated by density gradient centrifugation. T lymphocytes (T cells, Tc) were isolated from PBMC fractions via nylon wool adherence. Cells were cultured in standard cell culture media and stimulated by addition of 1 μg/ml Phytohemagglutinine for 48 hours in 96 well flat-bottom microtitre plates. Test compounds were added at concentration ranges from 0.1-250 μM over the total assay period.
DNA synthesis of proliferating PBMC was assessed by incorporation of nucleotide analogue bromdesoxyuridine (BrdU) and subsequent detection of optical density (OD) at 450 nm.
(§2) Data output was based on raw data and calculation of relative proliferation response in relation to PHA-activated T cells in the absence of test compound (100% control).
(§3) The […] value of proliferation suppression was assessed by graphical evaluation.

Assay [4] has as its system T lymphocytes. The assay can be described thus: Inhibition of proliferation of PHA-stimulated T lymphocytes (tritium thymidine incorporation). Type of assay: cell-based. Particulars: Homo sapiens, T-lymphocyte, 1 μg/ml Phytohemagglutinine, 48 hours, test compounds 0.1-250 μM, read-out: T cells IC50. On the procedure:
as §1
DNA synthesis of proliferating T cells was determined by incorporation of radio labelled tritium thymidine and subsequent radio detection.
as §2, §3

A value given as a limit tells only on which side of the number the result lay.

Sequence of purified, recombinant human DPIV (P27487 whole entry): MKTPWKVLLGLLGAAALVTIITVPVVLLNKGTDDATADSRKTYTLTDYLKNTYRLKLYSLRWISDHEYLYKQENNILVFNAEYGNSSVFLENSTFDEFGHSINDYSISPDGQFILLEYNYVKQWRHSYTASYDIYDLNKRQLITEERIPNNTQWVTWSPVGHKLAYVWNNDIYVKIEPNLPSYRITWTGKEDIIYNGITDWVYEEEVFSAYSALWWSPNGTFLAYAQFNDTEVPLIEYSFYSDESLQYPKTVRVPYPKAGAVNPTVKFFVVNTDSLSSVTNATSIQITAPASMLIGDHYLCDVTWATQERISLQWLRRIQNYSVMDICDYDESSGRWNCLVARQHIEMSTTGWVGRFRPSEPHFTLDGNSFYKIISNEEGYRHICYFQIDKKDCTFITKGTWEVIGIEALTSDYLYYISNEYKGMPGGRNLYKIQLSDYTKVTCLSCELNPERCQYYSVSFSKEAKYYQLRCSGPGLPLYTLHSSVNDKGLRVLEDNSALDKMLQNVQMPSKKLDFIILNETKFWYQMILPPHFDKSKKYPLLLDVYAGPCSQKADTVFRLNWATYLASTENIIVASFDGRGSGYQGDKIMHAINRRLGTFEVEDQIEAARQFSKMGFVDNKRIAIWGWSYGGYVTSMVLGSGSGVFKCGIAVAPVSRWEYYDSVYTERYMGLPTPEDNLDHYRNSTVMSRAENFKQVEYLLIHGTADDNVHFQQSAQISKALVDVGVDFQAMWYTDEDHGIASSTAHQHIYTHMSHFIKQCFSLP

`NC(CC(=O)Nc1cccc(NC(=O)C(O)C(N)Cc2ccccc2)c1)Cc1cc(F)ccc1F` (centres unmarked) [drawing 64]: the half-inhibitory concentration (IC50) worked out at 0.5 µM in assay [1] and 0.35 µM in assay [2].

Turning to `NC(CC(=O)N1CCCN(C(=O)C(O)C(N)Cc2ccccc2)CC1)Cc1cc(F)ccc1F` (centres unmarked) [drawing 65], the IC50 in assay [1] worked out at 0.07 µM; in assay [2], 10 µM.

Regarding `CCCCCCCCCCCCCCCCNC(CC(=O)NCC(C)(C)CNC(=O)C(O)C(Cc1ccccc1)NCCCCCCCCCCCCCCCC)Cc1cc(F)ccc1F` (centres unmarked) [drawing 66], the 50% inhibitory concentration (IC50) in assay [1] and in assay [2] was > 50 µM throughout.

For `NC(CC(=O)NCC1(CNC(=O)C(O)C(N)Cc2ccccc2)CCCCC1)Cc1cc(F)ccc1F` (centres unmarked) [drawing 67], the IC50 in assay [1] was determined as 0.19 µM; in assay [2] it was 0.85 µM.

Regarding `NC(CC(=O)NCC1(CNC(=O)C(O)C(N)Cc2ccccc2)CCCC1)Cc1cc(F)ccc1F` (centres unmarked) [drawing 68], the IC50 in assay [1] is 0.16 µM; in assay [2] it was 0.08 µM.

As for `CC(C)(CNC(=O)CC(N)Cc1cc(F)ccc1F)CNC(=O)C1OC(=O)NC1Cc1ccc(-c2ccccc2)cc1` (centres unmarked) [drawing 69], the values for the IC50 in assay [1] and in assay [2] were 40 µM and 1.9 µM, respectively.

With `CC(C)(CNCC(N)Cc1cc(F)ccc1F)CNC(=O)C(O)C(N)Cc1ccccc1` (centres unmarked) [drawing 70], the IC50 in assay [1] was found to be 30 µM; in assay [2], 0.33 µM.

Take `NC(CNC(=O)c1cccc(NC(=O)C(O)C(N)Cc2ccccc2)c1)Cc1cc(F)ccc1F` (centres unmarked) [drawing 71]: the 50% inhibitory concentration (IC50) in assay [1] came to 1.7 µM; in assay [2], 0.009 µM.

Consider `CN(CCCNC(=O)OCc1ccccc1)C(=O)C(O)C(N)Cc1ccccc1` (centres unmarked) [drawing 72], for which the IC50 in assay [1] was > 50 µM; in assay [2], 11.5 µM.

As for `CC(C)(CNC(=O)CC(N)Cc1cc(F)ccc1F)CNC(=O)C(O)C(N)Cc1ccc(O)cc1` (centres unmarked) [drawing 73], the IC50 in assay [1] is 4.6 µM; in assay [2] it was > 50 µM.

For `CC(C)(CNC(=O)CC(N)Cc1cc(F)ccc1F)CNC(=O)C(O)C(N)Cc1ccc(-c2ccsc2)cc1` (centres unmarked) [drawing 74], the IC50 stood at 0.1 µM in assay [1] and 0.001 µM in assay [2].

On to `CC(C)(CNC(=O)CC(N)Cc1cc(F)ccc1F)CNC(=O)C(O)C(N)Cc1ccc(-c2ccccc2)cc1` (centres unmarked) [drawing 75], for which the concentration for half-maximal inhibition (IC50) in assay [1] worked out at 0.1 µM; in assay [2], 0.346 µM.

Consider `CC(C)(CNC(=O)CC(N)Cc1cc(F)ccc1F)CNC(=O)C(O)C(N)Cc1ccc(-c2cccnc2)cc1` (centres unmarked) [drawing 76], for which the figures for the IC50 in assay [1] and in assay [2] were 0.096 µM and 0.0008 µM, respectively.

On to `CC(C)(CNC(=O)CC(N)Cc1cc(F)ccc1F)CNC(=O)C(O)C(N)Cc1ccc(-c2cncnc2)cc1` (centres unmarked) [drawing 77], for which the concentration for half-maximal inhibition (IC50) was determined as 0.1 µM in assay [1] and 0.01 µM in assay [2].

As for `NC(CNC(=O)c1cccc(NC(=O)C(O)C(N)Cc2ccc(-c3ccsc3)cc2)c1)Cc1cc(F)ccc1F` (centres unmarked) [drawing 78], the half-maximal inhibitory concentration (IC50) was 0.46 µM in assay [1] and 0.0005 µM in assay [2].

For the compound `NC(CNC(=O)c1cccc(NC(=O)C(O)C(N)Cc2ccc(-c3cccnc3)cc2)c1)Cc1cc(F)ccc1F` (centres unmarked) [drawing 79], the IC50 in assay [1] worked out at 0.775 µM; in assay [2], 0.0008 µM.

In the case of `NC(CC(=O)NCCNC(=O)C(O)C(N)Cc1ccccc1)Cc1ccc2ccccc2c1` (centres unmarked) [drawing 219], the results for the 50% inhibitory concentration (IC50) in assay [3] and in assay [4] were 30.4 µM and 34 µM, respectively.

Take `NC(CC(=O)NCCNC(=O)C(O)C(N)Cc1ccccc1)Cc1ccccc1` (centres unmarked) [drawing 220]: the 50% inhibitory concentration (IC50) in assay [3] was 122 µM; in assay [4], ≥ 200 µM.

For `NC(CC(=O)NCCNC(=O)C(O)C(N)Cc1ccccc1)Cc1cc(F)ccc1F` (centres unmarked) [drawing 221], the values for the concentration for half-maximal inhibition (IC50) in assay [3] and in assay [4] were 200 µM and ≥ 200 µM, respectively.

Take `NC(CC(=O)N1CCN(C(=O)CC(O)C(N)Cc2ccccc2)CC1)Cc1ccccc1` (centres unmarked) [drawing 222]: the IC50 in assay [3] was determined as 135 µM; in assay [4] it was 157 µM.

Turning to `NC(CC(=O)N1CCN(C(=O)C(O)C(N)Cc2ccccc2)CC1)Cc1ccccc1` (centres unmarked) [drawing 223], the values for the 50% inhibitory concentration (IC50) in assay [3] and in assay [4] were 140 µM and 157 µM, respectively.

Regarding `NC(CC(=O)NCCNC(=O)CC(O)C(N)Cc1ccccc1)Cc1ccccc1` (centres unmarked) [drawing 224], the half-inhibitory concentration (IC50) in assay [3] was 120 µM; in assay [4], 157 µM.

Turning to `C[C@@H]1CN(C(=O)CC(O)C(N)Cc2ccccc2)C[C@H](C)N1C(=O)CC(N)Cc1ccccc1` (some centres unmarked) [drawing 225], the IC50 in assay [3] was found to be 84.5 µM; in assay [4], 147 µM.

As to `CC(C)(NC(=O)CC(N)Cc1ccccc1)C(C)(C)NC(=O)C(O)C(N)Cc1ccccc1` (centres unmarked) [drawing 226], the IC50 in assay [3] was 46.9 µM; in assay [4], 16.1 µM.

For the compound `CC(C)(CNC(=O)CC(N)Cc1ccccc1)CNC(=O)C(O)C(N)Cc1ccccc1` (centres unmarked) [drawing 227], the values for the concentration for half-maximal inhibition (IC50) in assay [3] and in assay [4] were 200 µM and ≥ 200 µM, respectively.

Consider `CCC(CC)(CNC(=O)CC(N)Cc1ccccc1)CNC(=O)C(O)C(N)Cc1ccccc1` (centres unmarked) [drawing 228], for which the IC50 was 49.1 µM in assay [3] and 14.8 µM in assay [4].

`NC(CC(=O)NCCCCNC(=O)C(O)C(N)Cc1ccccc1)Cc1ccccc1` (centres unmarked) [drawing 229]: the IC50 in assay [3] is 200 µM; in assay [4], ≥ 200 µM.

In the case of `CC(C)(CNC(=O)CC(N)Cc1ccccc1)CNC(=O)CC(O)C(N)Cc1ccccc1` (centres unmarked) [drawing 230], the results for the IC50 in assay [3] and in assay [4] were 200 µM and ≥ 200 µM, respectively.

Consider `NC(CC(=O)NCCCCNC(=O)C(O)C(N)Cc1ccccc1)Cc1cc(F)ccc1F` (centres unmarked) [drawing 231], for which the figures for the concentration for half-maximal inhibition (IC50) in assay [3] and in assay [4] were 134 µM and ≥ 200 µM, respectively.

Take `CC(C)(CNC(=O)CC(N)Cc1cc(F)ccc1F)CNC(=O)C(O)C(N)Cc1ccccc1` (centres unmarked) [drawing 232]: the values for the IC50 in assay [3] and in assay [4] were 200 µM and ≥ 200 µM, respectively.

With `NC(CC(=O)NCCCCCNC(=O)C(O)C(N)Cc1ccccc1)Cc1ccccc1` (centres unmarked) [drawing 233], the values for the IC50 in assay [3] and in assay [4] were 200 µM and ≥ 200 µM, respectively.

For the compound `NC(CC(=O)NCCCCCCNC(=O)C(O)C(N)Cc1ccccc1)Cc1ccccc1` (centres unmarked) [drawing 234], in assay [3], the IC50 was 200 µM.

On to `NC(CC(=O)NCC1(CNC(=O)C(O)C(N)Cc2ccccc2)CCC1)Cc1ccccc1` (centres unmarked) [drawing 235], for which the IC50 in assay [3] turned out to be 200 µM; in assay [4] it was 157 µM.

Regarding `CC(C)(CNC(=O)CC(N)C(=O)N1CCSC1)CNC(=O)C(O)C(N)Cc1ccccc1` (centres unmarked) [drawing 236], the half-inhibitory concentration (IC50) in assay [3] is 200 µM; in assay [4], ≥ 200 µM.

Consider `NC(CC(=O)NCCCNC(=O)C(O)C(N)Cc1ccccc1)Cc1cc(F)ccc1F` (centres unmarked) [drawing 237], for which the half-maximal inhibitory concentration (IC50) in assay [3] is 122 µM; in assay [4], 70 µM.

With `CN(CCCN(C)C(=O)C(O)C(N)Cc1ccccc1)C(=O)CC(N)Cc1cc(F)ccc1F` (centres unmarked) [drawing 238], the concentration for half-maximal inhibition (IC50) in assay [3] came to 122 µM; in assay [4], 70 µM.

In the case of `CCCCCCCC(=O)NC(CC(=O)NCC(C)(C)CNC(=O)C(O)C(Cc1ccccc1)NC(=O)CCCCCCC)Cc1cc(F)ccc1F` (centres unmarked) [drawing 239], the half-maximal inhibitory concentration (IC50) in assay [3] worked out at 10.9 µM; in assay [4], 8.2 µM.

In the case of `CC(C)(CNC(=O)CC(CN)Cc1ccccc1)CNC(=O)C(O)C(N)Cc1ccccc1` (centres unmarked) [drawing 240], the half-inhibitory concentration (IC50) in assay [3] came to 64.4 µM; in assay [4] it was 60.7 µM.

For `NC(CC(=O)NC(CCCNC(=O)C(O)C(N)Cc1ccccc1)C(=O)O)Cc1cc(F)ccc1F` (centres unmarked) [drawing 241], the half-inhibitory concentration (IC50) in assay [3] turned out to be 70 µM; in assay [4] it was 113 µM.

Consider `CC(C)(CCNC(=O)CC(N)Cc1cc(F)ccc1F)CNC(=O)C(O)C(N)Cc1ccccc1` (centres unmarked) [drawing 242], for which the figures for the IC50 in assay [3] and in assay [4] were 63.3 µM and 157 µM, respectively.

In the case of `CN(CCCNC(=O)C(O)C(N)Cc1ccccc1)C(=O)CC(N)Cc1cc(F)ccc1F` (centres unmarked) [drawing 243], the IC50 in assay [3] is 157 µM; in assay [4], ≥ 200 µM.

For `CCCC(=O)NC(CC(=O)NCC(C)(C)CNC(=O)C(O)C(Cc1ccccc1)NC(=O)CCC)Cc1cc(F)ccc1F` (centres unmarked) [drawing 244], the values for the IC50 in assay [3] and in assay [4] were 54.5 µM and 53.9 µM, respectively.

Take `NC(CC(=O)Nc1ccc(NC(=O)C(O)C(N)Cc2ccccc2)cc1)Cc1cc(F)ccc1F` (centres unmarked) [drawing 245]: the results for the IC50 in assay [3] and in assay [4] were 14.8 µM and 14.6 µM, respectively.

Consider `CN(CCCNC(=O)CC(N)Cc1cc(F)ccc1F)C(=O)C(O)C(N)Cc1ccccc1` (centres unmarked) [drawing 246], for which the concentration for half-maximal inhibition (IC50) in assay [4] was ≥ 200 µM.

Take `CC(C)(CNC(=O)C(O)C(N)Cc1ccccc1)CNC(=O)C(CC(=O)O)C(N)Cc1cc(F)ccc1F` (centres unmarked) [drawing 262]: the IC50 in assay [4] stood at 88.3 µM.

`CCCCCCCCCCCCCC(=O)NC(CC(=O)NCC(C)(C)CNC(=O)C(O)C(Cc1ccccc1)NC(=O)CCCCCCCCCCCCC)Cc1cc(F)ccc1F` (centres unmarked) [drawing 264]: in assay [4], the concentration for half-maximal inhibition (IC50) worked out at 98.7 µM.

For the compound `CCC(CC)(CNC(=O)CC(N)Cc1cc(F)ccc1F)CNC(=O)C(O)C(N)Cc1ccccc1` (centres unmarked) [drawing 265], in assay [4], the IC50 amounted to 7.2 µM.
